Experimental data published in patent USRE50528E1, “Compounds and compositions for modulating EGFR mutant kinase activities” (Yuhan Corporation, priority 2014, dated 2025).

Key:
[1] = target: T1, SYK (Homo sapiens, UniProt P43405); assay: Kinase inhibition assay, SYK; format: biochemical; settings: biochemical potency;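 note: purified full-length human SYK pre-incubated 30 min with compound, then ULight-TK peptide phosphorylation for 1 h, detected with Europium-labeled antibody in Lance buffer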
T1 construct: Purified human, full-length SYK, KDR; purchased Carna Biosciences

[2] = target: T2, EGFR mutant Del19 (E746-A750) (Homo sapiens, UniProt P00533, DEL746-750); assay: Kinase inhibition assay, EGFR del E746-A750; format: biochemical; settings: read-out: EGFR mutants Del19 (E746-A750);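 note: truncated human EGFR mutant kinase, two-hour preincubation with compound, then one-hour reaction with ATP and ULight-PolyGT peptide, LANCE Europium-antibody phosphorylation readout, IC50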
T2 construct: truncated human JAK3, EGFR mutants such as del E746-A750; purchased Carna Biosciences

[3] = target: T3, EGFR mutant L858R/T790M (Homo sapiens, UniProt P00533, L858R/T790M); assay: Kinase inhibition assay, EGFR L858R/T790M; format: biochemical; settings: read-out: EGFR mutants L858R/T790M;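 note: truncated human enzyme preincubated two hours with compound, then one hour with one millimolar ATP and ULight-PolyGT peptide, Europium-labeled antibody detection, IC50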
T3 construct: truncated human JAK3, EGFR mutants such as del E746-A750; purchased Carna Biosciences

[4] = target: T4, EGFR mutant Del19/T790M (Homo sapiens, UniProt P00533, DEL746-750/T790M); assay: Kinase inhibition assay, EGFR del E746-A750/T790M; format: biochemical; settings: read-out: EGFR mutants Del19/T790M
T4 construct: truncated human JAK3, EGFR mutants such as del E746-A750; purchased Carna Biosciences

[5] = target: T5, EGFR mutant T790M (Homo sapiens, UniProt P00533, T790M); assay: Kinase inhibition assay, EGFR mutant T790M; settings: biochemical potency;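 note: truncated human EGFR mutant enzyme preincubated two hours with compound, then ATP plus ULight-PolyGT peptide for one hour, Europium-labeled antibody LANCE detection, IC50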
T5 construct: truncated human JAK3, EGFR mutants such as del E746-A750; purchased Carna Biosciences

[6] = target: T6, EGFR mutant L858R (Homo sapiens, UniProt P00533, L858R); assay: Kinase inhibition assay, EGFR L858R; format: biochemical; settings: read-out: EGFR mutants L858R;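 note: truncated human EGFR L858R kinase with compound preincubation, ULight-PolyGT peptide phosphorylation read by Europium-antibody Lance detection, IC50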
T6 construct: truncated human JAK3, EGFR mutants such as del E746-A750; purchased Carna Biosciences
T6 sequence (P00533 669-1210 L858R limits assumed): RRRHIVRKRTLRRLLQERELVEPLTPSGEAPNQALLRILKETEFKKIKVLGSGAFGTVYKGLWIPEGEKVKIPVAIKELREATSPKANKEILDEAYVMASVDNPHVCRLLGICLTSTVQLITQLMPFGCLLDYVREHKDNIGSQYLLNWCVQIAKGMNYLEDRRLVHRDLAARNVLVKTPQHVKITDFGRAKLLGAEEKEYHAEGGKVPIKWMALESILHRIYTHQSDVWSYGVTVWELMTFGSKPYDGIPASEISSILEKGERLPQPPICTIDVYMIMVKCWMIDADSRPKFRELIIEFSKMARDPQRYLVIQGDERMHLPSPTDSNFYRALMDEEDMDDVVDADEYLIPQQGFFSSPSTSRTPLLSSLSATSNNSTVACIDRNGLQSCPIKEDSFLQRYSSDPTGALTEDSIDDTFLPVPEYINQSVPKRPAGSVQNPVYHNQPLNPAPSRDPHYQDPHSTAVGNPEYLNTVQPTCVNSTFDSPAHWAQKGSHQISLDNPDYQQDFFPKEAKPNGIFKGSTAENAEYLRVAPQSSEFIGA

T4 sequence (P00533 with tags, fused parts or gaps DEL746-750/T790M limits assumed): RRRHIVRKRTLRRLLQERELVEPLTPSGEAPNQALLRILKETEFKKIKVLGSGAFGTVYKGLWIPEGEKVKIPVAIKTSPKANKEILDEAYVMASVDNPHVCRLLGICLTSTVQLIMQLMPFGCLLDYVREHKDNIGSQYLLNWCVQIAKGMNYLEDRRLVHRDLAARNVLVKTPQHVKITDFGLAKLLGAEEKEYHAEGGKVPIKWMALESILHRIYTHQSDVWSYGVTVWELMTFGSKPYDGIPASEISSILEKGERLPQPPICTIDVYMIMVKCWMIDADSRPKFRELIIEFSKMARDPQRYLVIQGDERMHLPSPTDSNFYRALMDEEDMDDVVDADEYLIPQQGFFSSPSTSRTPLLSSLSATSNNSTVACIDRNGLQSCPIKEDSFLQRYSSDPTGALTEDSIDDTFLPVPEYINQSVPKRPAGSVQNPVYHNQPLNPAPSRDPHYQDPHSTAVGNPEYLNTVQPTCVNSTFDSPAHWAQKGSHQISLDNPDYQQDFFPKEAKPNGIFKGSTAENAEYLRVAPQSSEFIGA
T3 sequence (P00533 669-1210 T790M/L858R limits assumed): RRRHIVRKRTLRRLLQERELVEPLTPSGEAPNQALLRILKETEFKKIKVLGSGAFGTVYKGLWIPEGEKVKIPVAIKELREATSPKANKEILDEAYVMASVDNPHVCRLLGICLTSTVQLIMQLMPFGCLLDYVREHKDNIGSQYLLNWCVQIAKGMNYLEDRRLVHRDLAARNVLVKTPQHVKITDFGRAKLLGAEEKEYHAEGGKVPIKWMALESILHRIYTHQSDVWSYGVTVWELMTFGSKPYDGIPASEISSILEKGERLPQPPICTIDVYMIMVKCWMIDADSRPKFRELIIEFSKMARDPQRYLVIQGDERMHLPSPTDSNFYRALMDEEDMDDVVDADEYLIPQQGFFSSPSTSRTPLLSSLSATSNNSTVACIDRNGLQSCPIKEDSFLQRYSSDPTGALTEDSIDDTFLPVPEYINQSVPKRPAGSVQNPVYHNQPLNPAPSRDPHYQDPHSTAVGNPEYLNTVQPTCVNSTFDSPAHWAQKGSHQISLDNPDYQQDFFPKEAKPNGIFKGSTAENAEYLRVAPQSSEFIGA
T5 sequence (P00533 669-1210 T790M limits assumed): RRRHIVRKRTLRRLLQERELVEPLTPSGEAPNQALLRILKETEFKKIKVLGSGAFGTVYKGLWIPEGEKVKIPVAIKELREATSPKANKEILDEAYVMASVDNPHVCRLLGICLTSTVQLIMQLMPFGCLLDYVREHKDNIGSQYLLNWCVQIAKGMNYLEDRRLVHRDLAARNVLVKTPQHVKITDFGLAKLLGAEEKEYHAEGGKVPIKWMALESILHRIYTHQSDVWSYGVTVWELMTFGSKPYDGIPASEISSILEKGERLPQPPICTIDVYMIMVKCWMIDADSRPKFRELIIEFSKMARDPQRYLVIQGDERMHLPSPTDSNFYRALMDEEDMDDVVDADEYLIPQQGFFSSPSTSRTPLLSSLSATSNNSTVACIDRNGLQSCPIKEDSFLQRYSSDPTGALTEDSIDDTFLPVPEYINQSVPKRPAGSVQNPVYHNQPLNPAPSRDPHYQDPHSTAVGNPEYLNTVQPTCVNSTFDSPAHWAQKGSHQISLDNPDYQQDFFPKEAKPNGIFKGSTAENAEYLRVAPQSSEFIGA
T2 sequence (P00533 with tags, fused parts or gaps DEL746-750 limits assumed): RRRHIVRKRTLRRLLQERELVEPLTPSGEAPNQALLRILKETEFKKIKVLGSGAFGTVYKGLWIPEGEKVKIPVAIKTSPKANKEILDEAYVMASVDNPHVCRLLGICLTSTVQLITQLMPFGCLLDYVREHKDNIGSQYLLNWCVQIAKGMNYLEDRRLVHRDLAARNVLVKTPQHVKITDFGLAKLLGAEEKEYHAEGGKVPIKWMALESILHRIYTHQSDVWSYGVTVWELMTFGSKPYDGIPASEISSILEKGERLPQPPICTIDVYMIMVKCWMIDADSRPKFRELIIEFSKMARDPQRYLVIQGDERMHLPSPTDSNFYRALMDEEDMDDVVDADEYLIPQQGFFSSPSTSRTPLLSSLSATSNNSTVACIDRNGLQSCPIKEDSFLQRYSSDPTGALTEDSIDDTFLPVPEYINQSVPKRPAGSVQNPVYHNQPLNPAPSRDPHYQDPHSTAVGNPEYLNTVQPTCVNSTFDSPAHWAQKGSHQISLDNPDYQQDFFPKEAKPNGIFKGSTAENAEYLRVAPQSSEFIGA

SMILES | IC50 [1] [nM] | IC50 [2] [nM] | IC50 [3] [nM] | IC50 [4] [nM] | IC50 [5] [nM] | IC50 [6] [nM]
C=CC(=O)Nc1cc(Nc2ncc(C)c(-n3cc(CN(C)C4CN(C)C4)cn3)n2)c(OC)cc1N1CCOCC1 [Compound 23, N-(4-methoxy-5-(5-methyl-4-(4-((methyl(1-methylazetidin-3-yl)amino)methyl)-1H-pyrazol-1-yl)pyrimidin-2-ylamino)-2-morpholinophenyl)acrylamide] | > 1000 | 201 to 1000 | 201 to 1000 | 201 to 1000 | 201 to 1000 | –
C=CC(=O)Nc1cc(Nc2nccc(-n3nc(C)c(CN4CCC4)c3C)n2)c(OC)cc1N1CCOCC1 [Compound 70, N-(5-(4-(4-(azetidin-1-ylmethyl)-3,5-dimethyl-1H-pyrazol-1-yl)pyrimidin-2-ylamino)-4-methoxy-2-morpholinophenyl)acrylamide] | – | 20 to 200 | 20 to 200 | 20 to 200 | – | 20 to 200
C=CC(=O)Nc1cc(Nc2nccc(-n3cc(CN(C)C)c(-c4cc(C)ccc4C)n3)n2)c(OC)cc1N1CCOCC1 [Compound 89, N-(5-(4-(4-((dimethylamino)methyl)-3-(2,5-dimethylphenyl)-1H-pyrazol-1-yl)pyrimidin-2-ylamino)-4-methoxy-2-morpholinophenyl)acrylamide] | – | 20 to 200 | < 20 | < 20 | 20 to 200 | 20 to 200
C=CC(=O)Nc1cc(Nc2ncc(C)c(-n3cc(CN4CCC4)c(-c4ccccc4)n3)n2)c(OC)cc1N1CCOCC1 [Compound 121, N-(5-(4-(4-(azetidin-1-ylmethyl)-3-phenyl-1H-pyrazol-1-yl)-5-methylpyrimidin-2-ylamino)-4-methoxy-2-morpholinophenyl)acrylamide] | – | < 20 | < 20 | < 20 | < 20 | < 20
C=CC(=O)Nc1cc(Nc2ncc(C)c(-n3cc(CN4CCC4)c(C(C)C)n3)n2)c(OC)cc1N1CCOCC1 [Compound 125, N-(5-(4-(4-(azetidin-1-ylmethyl)-3-isopropyl-1H-pyrazol-1-yl)-5-methylpyrimidin-2-ylamino)-4-methoxy-2-morpholinophenyl)acrylamide] | – | < 20 | < 20 | < 20 | < 20 | < 20
C=CC(=O)Nc1cc(Nc2nccc(-n3cc(CN(C)C)c(C(C)(C)C)n3)n2)c(OC)cc1N(CC)CCOC [Compound 126, N-(5-(4-(3-tert-butyl-4-((dimethylamino)methyl)-1H-pyrazol-1-yl)pyrimidin-2-ylamino)-2-(ethyl(2-methoxyethyl)amino)-4-methoxyphenyl)acrylamide] | – | < 20 | < 20 | < 20 | 20 to 200 | < 20
C=CC(=O)Nc1cc(Nc2nccc(-n3cc(CN(C)C)c(-c4cccnc4)n3)n2)c(OC)cc1N1CCOCC1 [Compound 128, N-(5-(4-(4-((dimethylamino)methyl)-3-(pyridin-3-yl)-1H-pyrazol-1-yl)pyrimidin-2-ylamino)-4-methoxy-2-morpholinophenyl)acrylamide] | – | < 20 | < 20 | < 20 | < 20 | < 20
C=CC(=O)Nc1cc(Nc2ncc(C)c(-n3cc(CN(C)C)c(C4CC4)n3)n2)c(OC)cc1N(C)C1COC1 [Compound 132, N-(5-(4-(3-cyclopropyl-4-((dimethylamino)methyl)-1H-pyrazol-1-yl)-5-methylpyrimidin-2-ylamino)-4-methoxy-2-(methyl(oxetan-3-yl)amino)phenyl)acrylamide] | – | < 20 | < 20 | < 20 | < 20 | < 20
C=CC(=O)Nc1cc(Nc2nccc(-n3cc(CN(C)C)c(-c4ccncc4)n3)n2)c(OC)cc1N1CCOCC1 [Compound 136, N-(5-(4-(4-((dimethylamino)methyl)-3-(pyridin-4-yl)-1H-pyrazol-1-yl)pyrimidin-2-ylamino)-4-methoxy-2-morpholinophenyl)acrylamide] | – | < 20 | < 20 | < 20 | < 20 | < 20
C=CC(=O)Nc1cc(Nc2nccc(-n3cc(CN(C)CC)c(C4CC4)n3)n2)c(OC)cc1N1CCN(C(C)=O)CC1 [Compound 137, N-(2-(4-acetylpiperazin-1-yl)-5-(4-(3-cyclopropyl-4-((ethyl(methyl)amino)methyl)-1H-pyrazol-1-yl)pyrimidin-2-ylamino)-4-methoxyphenyl)acrylamide] | – | < 20 | < 20 | < 20 | < 20 | < 20
C=CC(=O)Nc1cc(Nc2nccc(-n3cc(CN(C)CC)c(C)n3)n2)c(OC)cc1N1CCOCC1 [Compound 145, N-(5-(4-(4-((ethyl(methyl)amino)methyl)-3-methyl-1H-pyrazol-1-yl)pyrimidin-2-ylamino)-4-methoxy-2-morpholinophenyl)acrylamide] | – | < 20 | < 20 | < 20 | 20 to 200 | < 20

More lines, now with the values ahead:

IC50 [1] [nM] | IC50 [2] [nM] | IC50 [3] [nM] | IC50 [4] [nM] | IC50 [5] [nM] | IC50 [6] [nM] | SMILES
– | < 20 | 20 to 200 | < 20 | < 20 | 20 to 200 | C=CC(=O)Nc1cc(Nc2nccc(-n3ccc(-c4ccccc4)n3)n2)c(OC)cc1N1CCN(C)CC1 [Compound 85, N-(4-methoxy-2-(4-methylpiperazin-1-yl)-5-(4-(3-phenyl-1H-pyrazol-1-yl)pyrimidin-2-ylamino)phenyl)acrylamide]
– | < 20 | 20 to 200 | < 20 | 201 to 1000 | 20 to 200 | C=CC(=O)Nc1cc(Nc2nccc(-n3cc(CO)c(-c4ccccc4)n3)n2)c(OC)cc1N1CCOCC1 [Compound 91, N-(5-(4-(4-(hydroxymethyl)-3-phenyl-1H-pyrazol-1-yl)pyrimidin-2-ylamino)-4-methoxy-2-morpholinophenyl)acrylamide]
> 1000 | < 20 | < 20 | – | < 20 | < 20 | C=CC(=O)Nc1cc(Nc2nccc(-n3cc(CN(C)C)c(C(C)(C)C)n3)n2)c(OC)cc1N(C)C1COC1 [Compound 102, N-(5-(4-(3-tert-butyl-4-((dimethylamino)methyl)-1H-pyrazol-1-yl)pyrimidin-2-ylamino)-4-methoxy-2-(methyl(oxetan-3-yl)amino)phenyl)acrylamide]
– | < 20 | < 20 | < 20 | < 20 | < 20 | C=CC(=O)Nc1cc(Nc2nccc(-n3cc(CN(C)C)c(C(C)C)n3)n2)c(OC)cc1N(C)CCOC [Compound 112, N-(5-(4-(4-((dimethylamino)methyl)-3-isopropyl-1H-pyrazol-1-yl)pyrimidin-2-ylamino)-4-methoxy-2-((2-methoxyethyl)(methyl)amino)phenyl)acrylamide]
– | < 20 | < 20 | < 20 | < 20 | < 20 | C=CC(=O)Nc1cc(Nc2nccc(-n3cc(CN4CCC4)c(C(C)C)n3)n2)c(OC)cc1N(C)CCOC [Compound 113, N-(5-(4-(4-(azetidin-1-ylmethyl)-3-isopropyl-1H-pyrazol-1-yl)pyrimidin-2-ylamino)-4-methoxy-2-((2-methoxyethyl)(methyl)amino)phenyl)acrylamide]
